Conditions: for log10 biotransformation half-life (days) / log10 BCF: fish

Row | Compound | melting point [°C] | boiling point [°C] | also measured
1 | CC(=O)N(C)C(=O)COC(=O)c1ccccc1 | 102 | – | –
2 | C#CC(C)=O | – | 84 | –
3 | CC1=CC(=O)C(C2=C(O)C(=O)C(C)=CC2=O)=C(O)C1=O | 230 | – | –
4 | CCC(CC1CCCCC1)CC1CCCCC1 | – | 306 | –
5 | C=CCNC(N)=S | 78 | – | –
6 | C=Cc1cccnc1 | – | 162 | –
7 | Clc1c(Cl)c(Cl)c(Oc2c(Cl)c(Cl)c(Cl)c(Cl)c2Cl)c(Cl)c1Cl | – | – | log10 biotransformation half-life (days): 1.8
8 | CCOC(=O)CCCCCCCCC(=O)OCC | 5 | 305 | log10 vapour pressure (mmHg): -3.29
9 | FC=C(F)F | – | -51 | –
10 | O=C(Cl)c1ccccc1C(=O)Cl | 15.5 | 281 | log10 vapour pressure (mmHg): -1.79
11 | Cc1ccc(CCO)cc1 | – | 244 | –
12 | CCCCCCCCC[C@H](O)CC | 25 | – | –
13 | FC(OC(F)(F)C(F)(F)C(F)(F)F)C(F)(F)F (centres undefined) | – | 41 | –
14 | CCCCCCCCCCCCCCCC[n+]1ccccc1.[Br-] | 63 | – | –
15 | CC(C)CC(=O)C1C(=O)c2ccccc2C1=O | 68.5 | – | –
16 | CC1(c2ccc(Oc3ccccc3)cc2)OC(=O)N(Nc2ccccc2)C1=O (centres undefined) | 141 | – | log10 vapour pressure (mmHg): -8.32
17 | Oc1cccc(Br)c1 | 33 | 236 | ready biodegradability: not readily biodegradable; log10 BCF: 1.18; log10 biotransformation half-life (days): -0.95
18 | Cc1ccccc1N=Nc1c(N)ccc2ccccc12 | 126 | – | –
19 | COCCOCCO | – | 193 | log10 vapour pressure (mmHg): -0.602
20 | CC=COCC | – | 71.5 | –
21 | CC1=CC[C@@]23CC1C(C)(C)[C@@H]2CC[C@H]3C | 262 | – | –
22 | CCC(CC)CCC(C)C | – | 160 | –

Row | Compound | melting point [°C] | boiling point [°C] | also measured
23 | CCCCCCCCOC(=O)CCC | -55.6 | 244 | –
24 | CC(C)C1=CC2C(C)CC1C1C(=O)OC(=O)C21 (centres undefined) | – | – | ready biodegradability: not readily biodegradable
25 | c1cc(-c2ncco2)cc(-c2ncco2)c1 | – | – | ready biodegradability: not readily biodegradable
26 | CCCCOC(=O)OCCCC | – | 170 | –
27 | O=C(Cl)c1ccccc1 | -1 | 197 | log10 vapour pressure (mmHg): -0.155
28 | O[C@H]1C=CCCC1 | – | 164 | –
29 | OC1CCCCCCCCC1 | 40.5 | – | –
30 | CCN(CC)c1ccc(/N=N/c2ccccc2)cc1 | 97.5 | – | log10 vapour pressure (mmHg): -7.07
31 | c1ccc2c(c1)-c1cccc3cccc-2c13 | – | 384 | log10 Henry constant (atm·m³/mol): -5.05; log10 Koa: 8.88; log10 Koc (L/kg): 4.8; log10 biodegradation half-life (days): 2.17; log10 vapour pressure (mmHg): -5.04; ready biodegradability: not readily biodegradable; log10 BCF: 3.56; log10 biotransformation half-life (days): -0.02
32 | CCOC(=O)c1nc(C(Cl)(Cl)Cl)n(-c2ccc(Cl)cc2Cl)n1 | 110 | – | log10 vapour pressure (mmHg): -8.18
33 | [N-]=[N+]=Nc1ccc(Br)cc1 | 20 | – | –
34 | Cc1ccc(N)c(Cl)c1 | 7 | 220 | –
35 | O=C1NC(=O)c2c(Cl)c(Cl)c(Cl)c(Cl)c21 | – | – | ready biodegradability: not readily biodegradable
36 | C=CCOCC=C | -6 | 94 | –
37 | O=c1c(O)c(-c2ccc(O)c(O)c2)oc2cc(O)ccc12 | 330 | – | –
38 | CC(C)(Br)Br | – | 115 | –
39 | CSc1ncnc2c1ncn2[C@@H]1O[C@H](CO)[C@@H](O)[C@H]1O | 164 | – | –
40 | Clc1cc2cccc(Cl)c2cc1Cl | – | – | log10 Koa: 7.5
41 | CC1=CC=C(C(C)C)CC1 | – | 175 | –
42 | Cc1nccn1C | – | 206 | –
43 | C[C@]12CC[C@@H]3c4ccc(OC(=O)N(CCCl)CCCl)cc4CC[C@H]3[C@@H]1CC[C@@H]2O | 104 | – | –
44 | O=C(O)c1ccccc1C(F)(F)F | 111 | – | –

Row | Compound | melting point [°C] | boiling point [°C] | also measured
45 | CCCCCCCCCOC(=O)c1ccc(N)cc1 | 69 | – | –
46 | CCNC1CCCCC1 | – | 164 | –
47 | CCCOC(=O)Cn1cc(I)c(=O)c(I)c1 | 186 | – | –
48 | CCN(CC)CCOC(=O)C1(C2CCCCC2)CCCCC1.Cl | 165 | – | –
49 | Cc1cnc(C)[nH]1 | 92 | 267 | –
50 | O=[N+]([O-])c1ccc(CCO)cc1 | 63 | – | –
51 | CCCCCCCCCC(C)O (centres undefined) | – | – | log10 vapour pressure (mmHg): -1.48
52 | CCCCCCCC(=O)OCCCCC | -34.8 | 260 | –
53 | O=C1OC2(c3ccccc31)c1cc(Br)c(O)c(Br)c1Oc1c2cc(Br)c(O)c1Br | 295 | – | –
54 | Nc1ncccn1 | 128 | – | –
55 | CCOC(F)(F)C(F)F | – | 57.5 | log10 vapour pressure (mmHg): 2.34
56 | O=C(O)CF | 35.2 | 168 | log10 Henry constant (atm·m³/mol): -7.91
57 | CCCCCCCCC(=O)OC | – | 214 | –
58 | CCCCCC#CCC(=O)O | 17 | – | –
59 | FC(F)(F)C(F)(F)C(F)(F)F | -148 | -36.6 | log10 vapour pressure (mmHg): 3.82
60 | O=S(=O)(O)c1ccc(-c2ccc(S(=O)(=O)O)cc2)cc1 | 72.5 | – | –
61 | Nc1ccccc1Oc1ccccc1 | 45.8 | 308 | –
62 | CCCCCCCCCCCCCCCCN | 46.8 | 322 | log10 vapour pressure (mmHg): -3.88
63 | C[C@]12CC[C@H]3[C@@H](CCC4=CC(=O)CC[C@@]43C)[C@@H]1CC[C@@H]2O | 155 | – | –
64 | Cc1cc(N)cc(C)n1 | 192 | 246 | –
65 | CCCCCCCCCCCCOC(C)=O | 1.3 | 265 | –
66 | CN(C)Cc1c[nH]c2ccccc12 | 138 | – | –

Row | Compound | melting point [°C] | boiling point [°C] | also measured
67 | O=C(O)/C=C\C(=O)O | 130 | – | ready biodegradability: readily biodegradable
68 | CCCCNCC(=O)Nc1c(C)cccc1Cl | 45.5 | – | –
69 | CCN(C(=O)Oc1cccc(NC(=O)OC(C)C)c1)c1ccccc1 | 110 | – | –
70 | CCCCOC(=O)C(Cl)(Cl)Cl | – | 204 | –
71 | CC=CCc1ccccc1 | – | 176 | –
72 | CCCCCCCCC(=O)Cl | -60.5 | 215 | –
73 | CCCCCOC | – | 99 | –
74 | CC(C)CCCN | -94.4 | 125 | –
75 | O=C(C(Cl)Cl)C(Cl)(Cl)Cl | 2.1 | – | –
76 | Cc1cc(C)c(O)c(C)c1 | 73 | 220 | log10 vapour pressure (mmHg): -1.76; ready biodegradability: not readily biodegradable; log10 BCF: 0.93; log10 biotransformation half-life (days): -1.3
77 | CCCC(C)CCC | -121 | 118 | log10 biodegradation half-life (days): 0.602; log10 vapour pressure (mmHg): 1.31
78 | O=Cc1cccc(Oc2ccccc2)c1 | – | – | ready biodegradability: not readily biodegradable
79 | Cc1ccc(C(C)C)c(O)c1 | 51.5 | 232 | log10 vapour pressure (mmHg): -2.66; ready biodegradability: not readily biodegradable
80 | CCn1cc(C(=O)O)c(=O)c2cnc(N3CCCC3)nc21 | 315 | – | –
81 | O=C(Cl)CCCl | – | 144 | –
82 | FC(F)(F)C(Cl)=C(Cl)C(F)(F)F | -67.3 | 68.5 | –
83 | CC(Br)(CBr)COc1c(Br)cc(Br)cc1Br (centres undefined) | – | – | ready biodegradability: not readily biodegradable
84 | C=CC(=O)OCCOC | – | – | ready biodegradability: readily biodegradable
85 | CCN1C(=O)OC(C)(C)C1=O | 76.5 | – | –
86 | Cc1cc(-c2ccccc2)ccc1N | 43 | – | –
87 | CC(C)OB(OC(C)C)OC(C)C | – | 140 | log10 vapour pressure (mmHg): 0.875
88 | O=C(O)c1cc([N+](=O)[O-])cc([N+](=O)[O-])c1O | 170 | – | –

Row | Compound | melting point [°C] | boiling point [°C] | also measured
89 | CCOP(=S)(OCC)SCSc1ccc(Cl)cc1 | – | – | log10 Koc (L/kg): 4.66; log10 vapour pressure (mmHg): -6.52
90 | CCCCCCC(Br)CBr (centres undefined) | – | 241 | –
91 | Cc1nc(C)c(Cl)c(O)c1Cl | 320 | – | –
92 | Clc1ccccc1-c1ccccc1 | 34 | 274 | log10 Henry constant (atm·m³/mol): -3.13; log10 Koc (L/kg): 3.47; log10 vapour pressure (mmHg): -2.86
93 | CCC1CCCC1 | -138 | 104 | log10 biodegradation half-life (days): 1.18; log10 vapour pressure (mmHg): 1.6
94 | COC(=O)c1cc(Cl)cc(N)c1Cl | – | – | log10 Koc (L/kg): 2.74
95 | CC/C=C\C/C=C\C/C=C\CCCCCCCC(=O)OC | – | – | log10 vapour pressure (mmHg): -5.29
96 | CC(=O)N[C@@H](CCC(=O)O)C(=O)O | 199 | – | –
97 | Cc1cc(C)cc(OP(=O)(Oc2cc(C)cc(C)c2)Oc2cc(C)cc(C)c2)c1 | – | – | ready biodegradability: not readily biodegradable
98 | OC[C@@H]1CCCCN1 | 69 | – | –
99 | CCCCCCCCCCCCCCCCCC(=O)OC1CCCCC1 | 44 | – | –
100 | C=CCN1CC[C@]23c4c5ccc(O)c4O[C@H]2[C@@H](O)C=C[C@H]3[C@H]1C5 | 208 | – | –
101 | FC(F)C(F)(F)F | -103 | -48.5 | log10 vapour pressure (mmHg): 4.02
102 | C[N+]1(CCC(O)(c2ccccc2)c2cccs2)CCOCC1.[I-] (centres undefined) | 190 | – | –
103 | CCCCC1(CC)C(=O)NC(=O)NC1=O | 128 | – | –
104 | Cc1cc(CO)c(O)c(CO)c1 | 129 | – | –
105 | Nc1ncnc2[nH]cnc12 | – | – | log10 vapour pressure (mmHg): -10.4
106 | Nc1ccc(S(=O)(=O)c2ccc(NC(=O)CCC(=O)O)cc2)cc1 | 157 | – | –
107 | O=C(c1ccccc1)C(Cl)c1ccccc1 (centres undefined) | 68.5 | – | –
108 | C=C(C)[C@@H]1CC[C@]2(CO)CC[C@]3(C)[C@H](CC[C@@H]4[C@@]5(C)CC[C@H](O)C(C)(C)[C@@H]5CC[C@]43C)[C@@H]12 | 250 | – | –
109 | ClCC(CCl)(CCl)CCl | 97 | – | –
110 | OCc1cccc(F)c1 | – | 201 | –

Row | Compound | melting point [°C] | boiling point [°C] | also measured
111 | O=C(O)CCl | 63 | 189 | log10 Henry constant (atm·m³/mol): -8.03; log10 vapour pressure (mmHg): -1.19; ready biodegradability: readily biodegradable
112 | CCCC(C)(C)C(=O)Nc1ccc(Cl)cc1 | 87.5 | – | –
113 | Oc1ccccc1I | 43 | – | ready biodegradability: not readily biodegradable
114 | CCC(C)C(C)CC (centres undefined) | – | 118 | log10 biodegradation half-life (days): 0.477; log10 vapour pressure (mmHg): 1.34
115 | CCC(C)C(=O)C(C)CC (centres undefined) | – | 162 | –
116 | S=C1NCCS1 | 106 | – | –
117 | O=C(Cl)C(=O)Cl | -16 | 63.5 | –
118 | CCCCCCCCCCCCCCCCCC(=O)OCCO | 60.5 | – | –
119 | CCCCCCCOCC | -68.3 | 166 | –
120 | CCCCCC(=O)OC(=O)CCCCC | -41 | – | –
121 | CC1CCC(C)CC1 (centres undefined) | -87 | 120 | log10 vapour pressure (mmHg): 1.25
122 | C=C(C(=O)O)c1ccccc1 | 106 | – | ready biodegradability: readily biodegradable
123 | c1ccc(C2CCNCC2)cc1 | 60.5 | 257 | –
124 | Cc1cc(N(CCO)CCO)ccc1N=Nc1ccc([N+](=O)[O-])cc1Cl | 192 | – | –
125 | CCCC/C=C/CCCCC | -83.8 | 192 | –
126 | C=CCc1ccc(O)cc1 | 15.8 | 238 | –
127 | CC(C)CCON=O | – | 99.2 | –
128 | O=C1NC(=O)C([N+](=O)[O-])C(=O)N1 | 180 | – | –
129 | Cc1cccc(Cl)c1O | – | 189 | –
130 | FC(F)(F)C(F)(F)C(F)(F)C(F)(F)C(F)(F)C(F)(F)C(F)(F)C(F)(F)C(F)(F)Br | – | 159 | –
131 | FC(F)(F)C(F)(F)Br | – | -21 | –

From the OPERA property sets (Mansouri et al. 2018)
